EP3042903B1, “Substituted hetero-bicyclic compounds, compositions and medicinal applications thereof” (Impetis Biosciences Ltd., priority 2015, dated 2016)

Key:
[1] = molecular target: T1, Recombinant Human Bruton's tyrosine kinase (Btk) (Homo sapiens, UniProt Q06187); assay: Recombinant Human Bruton's tyrosine kinase (Btk) inhibition assay (HTRF KinEASE-TK); format: biochemical; conditions: 20 ng/ml rhBtk, 77 µM ATP (KM), 1 µM TK-Biotin Substrate, 90 minutes; read-out: IC50 (nM) in recombinant hBTK assay
T1 construct: Full length human BTK (hBTK, Genbank#NM_000061.2) was cloned into pFastBac-HTB vector; 6XHis (N); made in house; host or cells: Sf9 cells (Bac-to-Bac baculovirus expression system)
T1 sequence (Q06187 whole entry): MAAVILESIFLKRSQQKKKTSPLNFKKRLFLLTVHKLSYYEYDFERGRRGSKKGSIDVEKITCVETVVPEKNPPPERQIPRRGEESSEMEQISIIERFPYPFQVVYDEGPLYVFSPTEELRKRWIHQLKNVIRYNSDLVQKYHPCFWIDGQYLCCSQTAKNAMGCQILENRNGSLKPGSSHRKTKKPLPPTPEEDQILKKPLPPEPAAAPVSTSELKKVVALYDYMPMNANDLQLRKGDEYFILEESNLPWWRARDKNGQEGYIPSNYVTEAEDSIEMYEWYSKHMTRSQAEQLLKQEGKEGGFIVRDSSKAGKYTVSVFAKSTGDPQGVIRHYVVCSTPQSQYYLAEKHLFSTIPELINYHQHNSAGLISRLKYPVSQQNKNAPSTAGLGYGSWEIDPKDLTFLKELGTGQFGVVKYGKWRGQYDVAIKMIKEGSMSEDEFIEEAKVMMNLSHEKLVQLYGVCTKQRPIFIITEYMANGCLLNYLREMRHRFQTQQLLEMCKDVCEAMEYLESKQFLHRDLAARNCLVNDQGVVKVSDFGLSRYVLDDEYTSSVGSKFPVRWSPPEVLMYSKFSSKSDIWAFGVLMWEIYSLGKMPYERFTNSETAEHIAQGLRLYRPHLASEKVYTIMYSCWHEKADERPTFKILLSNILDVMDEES
Experimental: Recombinant Human Bruton's tyrosine kinase (Btk) inhibition assay.
Full length human BTK (hBTK, Genbank#NM_000061.2) was cloned into pFastBac-HTB vector (Invitrogen, cat#10359-016). hBTK gene was expressed with N'-terminal 6XHis tag in Sf9 cells using Bac-to-Bac ^(R) Baculovirus expression system (Invitrogen, cat#10359-016) and the recombinant protein was purified by Ni-NTA method. The elution buffer for hBTK consisted of 50 mM Hepes pH 8.0, 300 mM NaCl, 10% glycerol, 1 mM dithiothreitol and 200 mM imidazole.
The inhibition assays were performed using the generic tyrosine kinase assay kit from Cis Bio (HTRF® KinEASE - TK™ # 62TK0PEB). The assay is based on the principle of fluorescence resonance energy transfer (FRET) between the Europium Cryptate labeled anti-phosphotyrosine antibody and streptavidin labeled fluorophore, XL-665. In an uninhibited kinase reaction the biotinylated peptide substrate (Tk-Biotin) gets phosphorylated at an intermediate tyrosine site which is captured by anti-phosphotyrosine antibody which eventually acts as a FRET donor. The streptavidin labeled XL-665 binds strongly to the Tk-Biotin substrate and act as a FRET acceptor. The resultant FRET signal is measured at 665 nm. A ratio of this specific fluorescence (665nm) to the background fluorescence (620nm), conferred by the free antibody, is directly proportional to the kinase activity.
The Btk inhibition assays were performed using 20 ng/ml of rhBtk in a final volume of 10µl reaction buffer containing 77 µM ATP and 1 µM TK-Biotin Substrate in 50 mM HEPES pH 7.0, 5mM MgCl2, 1mM DTT, 0.01% Tween 20 and 50nM SEB®; with a range of concentrations of the inhibitors. The kinase reaction was carried out at the KM of ATP (77 µM) as well as that of Tk-Biotin substrate (1 µM). After 90 minutes, the reaction was stopped by addition of SA-XL665 at a concentration of 62.5 nM in HTRF® detection buffer containing EDTA. Finally 5 µL of TK antibody-cryptate was added to the reaction and the plate was incubated for additional 60 minutes. The fluorescence was read using the FlexStation (Molecular Devices) with excitation at 340 nm and emissions at 620nm (for Cryptate) and 665nm (for FRET). A ratio of the 2 emissions was calculated for each well and expressed as follows: Specific signal = Ratio(Sample)−Ratio(Negative) [formula] Ratio = (665nm/620nm) × 10^4 [formula] Mean Ratio = ∑Ratio/3(triplicates) [formula]
For each data point, % inhibition is calculated based on uninhibited reaction which is considered as 100% activity over no enzyme or substrate controls. Dose response data is then fit using a four parameter logistic equation using GraphPad Prism 5 software to determine inhibition constant 50(IC50).

[2] = system: B cell activation as measured by CD69 expression in mouse splenocytes; assay: Inhibition of B cell activation as measured by CD69 expression in mouse splenocytes (flow cytometry); format: cell-based; conditions: C57/BL6 splenocytes, 3 µg/mL goat anti-mouse IgM, 18-20 hours, CD69 +ve cells within CD19; read-out: IC50 (nM) in B cell activation assay in Mouse spleenocytes
Source text: Inhibition of B cell activation as measured by CD69 expression in mouse splenocytes:
To test the effect of BTK inhibitors in suppressing B-cell receptor (BCR) mediated activation of B cells, we developed a flow cytometry based assay to analyze CD69 expression in B cell population among total splenocyte from the mouse. C57/BL6 mouse spleens were dissected out and splenocytes were isolated by mincing the tissue with a syringe plunger followed by RBC lysis (0.85% ammonium chloride, (Qualigens,Cat #21405) and several washes in PBS. Finally, cell were cultured in culture medium [RPMI medium (Sigma, Cat R6504) with 10% FBS (Gibco - Cat #10270).
Test compounds were diluted half log starting from 2 mM in 100% DMSO (Sigma, cat#D2650) (200X). 1x10^5 splenocytes were incubated with 1 µL of diluted test compounds in 200 µL culture medium in a U-bottom 96 well plate (Greiner) at 37°C with 5% CO2 for 30 minutes. Control wells received 1 µL of 100% DMSO without any compound. The cells were stimulated with 3 µg/mL goat anti-mouse IgM (Sigma, cat#M8644) and incubated for 18-20 hours. After the stimulation, cells were washed in cold PBS with 1% FBS and stained with 1:100 dilution of anti-CD69-PE (eBioscience, cat#12-0691-83) and anti-CD19-PE.Cy5 (eBioscience, cat#15-0193-83) for 1 hour on ice. Then the cells were washed 3 times with PBS with 1% FBS and analyzed by Guava Easycyte Mini flow cytometer system (Millipore). Flow cytometry data were analyzed using Weasel software (WEHI, Melbourne). B cells were gated using CD19 marker. Expression of CD69 was analyzed as percentage of CD69 +ve cells within CD19. Percent activity for each data point was calculated using following formula: [formula]
(§1) Percentage activity was fit using sigmoid dose response with variable slope logistic equation in GraphPad Prism 5 software to determine IC50.

[3] = system: B cell activation as measured by CD69 expression in Human whole blood; assay: Inhibition of B cell activation as measured by CD69 expression in Human whole blood (flow cytometry); format: cell-based; conditions: heparinized human whole blood, anti-IgD antibody 30 µg/mL, 4 hours, CD69 positive cells among CD20 B cells
Experimental: Inhibition of B cell activation as measured by CD69 expression in Human whole blood
To test the effect of BTK inhibitors in suppressing B-cell receptor (BCR) mediated activation of B cells, we developed a flow cytometry based assay to analyze CD69 expression in B cell population in human whole blood. Freshly collected heparinized human whole blood (60 µL/well) was dispensed in 96-well U bottom plate (Greiner), treated with the test compound at a concentrations ranging from 10 µM to 0.3 nM (half log dilutions). 0.5% DMSO (Sigma, cat#D2650) was used as vehicle control. The whole blood was incubated with compounds for 1 hour, followed by stimulation with anti-IgD antibody (Goat Anti-Human IgD Antibody - affinity purified, Bethyl laboratories, cat#A80-106A) at a final concentration of 30 µg/mL at 37°C and 5% CO2 for 4 hours. Subsequently, 45 µL blood was transferred to 1.5 ml microcentrifuge tubes and 1.2 µL of anti-CD20-PE.Cy5 (BD Biosciences, cat#561761)and 1.6 µL of anti-CD69-PE (eBioscience, cat#12-0691-83) antibody were added and mixed properly by gently tapping the tubes. Blood was stained for 20 minutes at room temperature (RT). After antibody incubation, 1 mL pre-warmed 1X Lyse/Fix solution (BD Biosciences, cat#558049) was added and cells were incubated at RT for 10 minutes. Then the tubes were centrifuged at 450xg for 5 minutes at RT and supernatant was removed. Pellet was disrupted by gentle tapping, cells were washed with 1 mL freshly prepared wash buffer and centrifuged at 450xg for 5 minutes at RT. Supernatant was removed completely before resuspending cells in 200 µl of wash buffer and proceeded for acquisition in Guava Easy Cyte Mini instrument. Acquisition was done with following laser settings: FSC Gain: X 16, FSC fine gain 100%, SSC: 893V, GRN: 663V, YLW: 649V, RED: 802V, Threshold Parameters Offset: FSC 0.73 V Threshold 300 units. The cells were diluted in such a way so that cell conc. should not exceed 500 cells/µL and at least 5000 cells were acquired. Viable lymphocytes were gated from the forward and side scatter profile of cells and B cells were sub-gated based on CD20-PE.Cy5 staining. Percent of CD69-PE positive cells were calculated among B lymphocyte sub-gate using Weasel software. Percent activity for each data point was calculated using following formula: [formula]
as §1

`O=C1c2c(F)cc(C3CC3)cc2OCCN1c1cc(F)cc(-c2ccnc3[nH]c(-c4ccc(CN5CCN(CC(F)F)CC5)cn4)cc23)c1CO` [Example 3, 8-cyclopropyl-4-[3-[2-[5-[[4-(2,2-difluoroethyl)piperazin-1-yl]methyl]-2-pyridyl]-1H-pyrrolo[2,3-b]pyridin-4-yl]-5-fluoro-2-(hydroxymethyl)phenyl]-6-fluoro-2,3-dihydro-1,4-benzoxazepin-5-one] gave an IC50 [1] of 0.65 nM, an IC50 [2] of 2.4 nM and an IC50 [3] of 54.2 nM.
